Test system: RA patients
Experiment: Atherogenic index, Study 1 (RA patients, add-on to MTX)
Type: in vivo, human
Conditions: for Atherogenic index Mean CFB - 24 weeks results / Atherogenic index Mean percentage CFB - 24 weeks results / Atherogenic index Median CFB - 24 weeks results: 200 mg q.d. continued over 24 weeks
Experimental: As used herein, the term ‘atherogenic index’ refers to
Double-blind, placebo-controlled add on study in subjects with moderately to severely active RA who have an inadequate response to methotrexate (MTX) (oral or parenteral).
Compound 1 (dosed as a [Compound 1:HCl:3H2O]) is dosed for twelve weeks once daily (q.d.) (50 mg, 100 mg or 200 mg) or twice daily (b.i.d.) (25 mg, 50 mg or 100 mg); or placebo.
At Week 12, the subjects on placebo who have not achieved 20% improvement in swollen joint count (SJC66) and tender joint count (TJC68) are re-randomized automatically to receive Compound 1 (dosed as a [Compound 1:HCl:3H2O]) either at 100 mg q.d. or 50 mg b.i.d. doses in a blinded fashion; subjects on 50 mg q.d. who have not achieved 20% improvement in SJC66 and TJC68 will be assigned to 100 mg q.d. and subjects on 25 mg b.i.d. that have not achieved a 20% improvement in SJC66 and TJC68 will be assigned to 50 mg b.i.d. Subjects who switch treatment at week 12 are handled as if they discontinued at week 12 for the purpose of statistical analysis, whereas subjects in the other groups will maintain their randomized treatment until Week 24.
The atherogenic index has been identified to be a good predictor of cardiovascular disorders risks and is calculated as follows: […]

[1] = 2 × 25 mg (b.i.d. group), week 1
[2] = 2 × 25 mg (b.i.d. group), week 2
[3] = 2 × 25 mg (b.i.d. group), week 4
[4] = 2 × 25 mg (b.i.d. group), week 8
[5] = 2 × 25 mg (b.i.d. group), week 12
[6] = 2 × 50 mg (b.i.d. group), week 1
[7] = 2 × 50 mg (b.i.d. group), week 2
[8] = 2 × 50 mg (b.i.d. group), week 4
[9] = 2 × 50 mg (b.i.d. group), week 8
[10] = 2 × 50 mg (b.i.d. group), week 12
[11] = 2 × 100 mg (b.i.d. group), week 1

With `O=C(Nc1nc2cccc(-c3ccc(CN4CCS(=O)(=O)CC4)cc3)n2n1)C1CC1` [Compound 1, cyclopropanecarboxylic acid {5-[4-(1,1-dioxo-thiomorpholin-4-ylmethyl)-phenyl]-[1,2,4]triazolo[1,5-a]pyridin-2yl}-amide] the “Atherogenic index Median CFB - 12 weeks results” value (100 mg q.d., week 12) was -0.10 mmol/L, the “Atherogenic index Mean CFB - 24 weeks results” value (week 1) was -0.17 mmol/L and the “Atherogenic index Mean percentage CFB - 24 weeks results” value (week 1) was −2.63%. The “Atherogenic index Median CFB - 24 weeks results” value (week 1) was -0.10 mmol/L, the “Atherogenic index Mean CFB - 24 weeks results” value (week 2) was -0.35 mmol/L and the “Atherogenic index Mean percentage CFB - 24 weeks results” value (week 2) was −7.45%. For the same molecule, the “Atherogenic index Median CFB - 24 weeks results” value (week 2) was -0.25 mmol/L, the “Atherogenic index Mean CFB - 24 weeks results” value (week 4) was -0.37 mmol/L and the “Atherogenic index Mean percentage CFB - 24 weeks results” value (week 4) was −7.97%. The “Atherogenic index Median CFB - 24 weeks results” value (week 4) was -0.30 mmol/L, the “Atherogenic index Mean CFB - 24 weeks results” value (week 8) was -0.36 mmol/L and the “Atherogenic index Mean percentage CFB - 24 weeks results” value (week 8) was −7.92%. For the same molecule, the “Atherogenic index Median CFB - 24 weeks results” value (week 8) was -0.30 mmol/L, the “Atherogenic index Mean CFB - 24 weeks results” value (week 12) was -0.35 mmol/L and the “Atherogenic index Mean percentage CFB - 24 weeks results” value (week 12) was −6.85%. The “Atherogenic index Median CFB - 24 weeks results” value (week 12) was -0.30 mmol/L, the “Atherogenic index Mean CFB - 24 weeks results” value (week 16) was -0.40 mmol/L and the “Atherogenic index Mean percentage CFB - 24 weeks results” value (week 16) was −8.14%. The “Atherogenic index Median CFB - 24 weeks results” value (week 16) was -0.40 mmol/L, the “Atherogenic index Mean CFB - 24 weeks results” value (week 20) was -0.48 mmol/L and the “Atherogenic index Mean percentage CFB - 24 weeks results” value (week 20) was −8.84%. For the same molecule, the “Atherogenic index Median CFB - 24 weeks results” value (week 20) was -0.40 mmol/L, the “Atherogenic index Mean CFB - 24 weeks results” value (week 24) was -0.34 mmol/L and the “Atherogenic index Mean percentage CFB - 24 weeks results” value (week 24) was −6.14%. The “Atherogenic index Median CFB - 24 weeks results” value (week 24) was -0.30 mmol/L, the “Atherogenic index Mean CFB” value (200 mg q.d., week 1) was -0.17 mmol/L and the “Atherogenic index Mean percentage CFB - 12 weeks results” value (200 mg q.d., week 1) was −3%. For the same molecule, the “Atherogenic index Median CFB - 12 weeks results” value (200 mg q.d., week 1) was -0.10 mmol/L, the “Atherogenic index Mean CFB” value (200 mg q.d., week 2) was -0.35 mmol/L and the “Atherogenic index Mean percentage CFB - 12 weeks results” value (200 mg q.d., week 2) was −7%. The “Atherogenic index Median CFB - 12 weeks results” value (200 mg q.d., week 2) was -0.25 mmol/L, the “Atherogenic index Mean CFB” value (200 mg q.d., week 4) was -0.37 mmol/L and the “Atherogenic index Mean percentage CFB - 12 weeks results” value (200 mg q.d., week 4) was −8%. For the same molecule, the “Atherogenic index Median CFB - 12 weeks results” value (200 mg q.d., week 4) was -0.30 mmol/L, the “Atherogenic index Mean CFB” value (200 mg q.d., week 8) was -0.36 mmol/L and the “Atherogenic index Mean percentage CFB - 12 weeks results” value (200 mg q.d., week 8) was −8%. For the same molecule, the “Atherogenic index Median CFB - 12 weeks results” value (200 mg q.d., week 8) was -0.30 mmol/L, the “Atherogenic index Mean CFB” value (200 mg q.d., week 12) was -0.35 mmol/L and the “Atherogenic index Mean percentage CFB - 12 weeks results” value (200 mg q.d., week 12) was −7%. For the same molecule, the “Atherogenic index Median CFB - 12 weeks results” value (200 mg q.d., week 12) was -0.30 mmol/L, the “Atherogenic index Mean CFB” value [1] was 0.07 mmol/L and the “Atherogenic index Mean percentage CFB - 12 weeks results” value [1] was 3%. For the same molecule, the “Atherogenic index Median CFB - 12 weeks results” value [1] was 0.10 mmol/L, the “Atherogenic index Mean CFB” value [2] was -0.03 mmol/L and the “Atherogenic index Mean percentage CFB - 12 weeks results” value [2] was 0%. For the same molecule, the “Atherogenic index Median CFB - 12 weeks results” value [2] was -0.10 mmol/L, the “Atherogenic index Mean CFB” value [3] was -0.04 mmol/L and the “Atherogenic index Mean percentage CFB - 12 weeks results” value [3] was 0%. For the same molecule, the “Atherogenic index Median CFB - 12 weeks results” value [3] was 0.00 mmol/L, the “Atherogenic index Mean CFB” value [4] was -0.08 mmol/L and the “Atherogenic index Mean percentage CFB - 12 weeks results” value [4] was −1%. The “Atherogenic index Median CFB - 12 weeks results” value [4] was -0.10 mmol/L, the “Atherogenic index Mean CFB” value [5] was 0.00 mmol/L and the “Atherogenic index Mean percentage CFB - 12 weeks results” value [5] was 2%. The “Atherogenic index Median CFB - 12 weeks results” value [5] was -0.10 mmol/L, the “Atherogenic index Mean CFB” value [6] was -0.06 mmol/L and the “Atherogenic index Mean percentage CFB - 12 weeks results” value [6] was 0%. The “Atherogenic index Median CFB - 12 weeks results” value [6] was 0.00 mmol/L, the “Atherogenic index Mean CFB” value [7] was -0.21 mmol/L and the “Atherogenic index Mean percentage CFB - 12 weeks results” value [7] was −5%. For the same molecule, the “Atherogenic index Median CFB - 12 weeks results” value [7] was -0.10 mmol/L, the “Atherogenic index Mean CFB” value [8] was -0.14 mmol/L and the “Atherogenic index Mean percentage CFB - 12 weeks results” value [8] was −3%. For the same molecule, the “Atherogenic index Median CFB - 12 weeks results” value [8] was -0.10 mmol/L, the “Atherogenic index Mean CFB” value [9] was -0.18 mmol/L and the “Atherogenic index Mean percentage CFB - 12 weeks results” value [9] was −3%. For the same molecule, the “Atherogenic index Median CFB - 12 weeks results” value [9] was -0.10 mmol/L, the “Atherogenic index Mean CFB” value [10] was -0.07 mmol/L and the “Atherogenic index Mean percentage CFB - 12 weeks results” value [10] was −1%. For the same molecule, the “Atherogenic index Median CFB - 12 weeks results” value [10] was 0.00 mmol/L, the “Atherogenic index Mean CFB” value [11] was -0.05 mmol/L and the “Atherogenic index Mean percentage CFB - 12 weeks results” value [11] was 0%. For the same molecule, the “Atherogenic index Median CFB - 12 weeks results” value [11] was 0.00 mmol/L and the “Atherogenic index Mean CFB” value (2 × 100 mg (b.i.d. group), week 2) was -0.19 mmol/L.

Source: patent US10376520B2, “Methods for the treatment of cardiovascular disorders” (Galapagos NV, priority 2015, dated 2019)
